Tests used:
[1] = test system: Mitogen-activated protein kinase kinase kinase 7; assay: Inhibition of TAK1 (unknown origin) at 0.1 uM by TR-FRET assay relative to control; conditions: Homo sapiens
[2] = target: Tyrosine-protein kinase receptor UFO (Homo sapiens) (UniProt P30530); assay: Inhibition of recombinant human N-terminal GST tagged AXL (473-end residues) expressed in baculovirus infected Sf9 cells at 0.1 uM by Z'-Lyte assay relative to control
[3] = target: High affinity nerve growth factor receptor (Homo sapiens) (UniProt P04629); assay: Inhibition of recombinant human His-tagged TRKA cytoplasmic domain expressed in baculovirus expression system at 0.1 uM by Z'-Lyte assay relative to control
U-87 MG [4] = assay: Antitumor activity against luciferase-fused human U87MG cells orthotopically xenografted in nude mouse assessed as tumor growth inhibition at 25 mg/kg, po qd for 4 weeks by bioluminescence imaging relative to control; assay type: functional, U-87MG ATCC; conditions: 672 h, read-out: TGI
[5] = target: Serine/threonine-protein kinase TAO2 (Homo sapiens) (UniProt Q9UL54); assay: Inhibition of recombinant human GST-tagged TAOK2 expressed in baculovirus expression system at 1 uM by Z'-Lyte assay relative to control
[6] = target: Cyclin-dependent kinase 4/cyclin D1 (Homo sapiens, UniProt P11802); assay: Inhibition of CDK4/Cyclin-D1 (unknown origin) using histone-H1 as substrate after 90 mins by ADP-Glo assay; assay type: protein-complex assay
[7] = target: Vascular endothelial growth factor receptor 2 (Homo sapiens) (UniProt P35968); assay: Inhibition of recombinant human His-tagged KDR cytoplasmic domain expressed in baculovirus expression system at 0.1 uM by Z'-Lyte assay relative to control
Vascular endothelial growth factor receptor 2 (Homo sapiens), sequence (P35968 whole entry, the tested form may be a part): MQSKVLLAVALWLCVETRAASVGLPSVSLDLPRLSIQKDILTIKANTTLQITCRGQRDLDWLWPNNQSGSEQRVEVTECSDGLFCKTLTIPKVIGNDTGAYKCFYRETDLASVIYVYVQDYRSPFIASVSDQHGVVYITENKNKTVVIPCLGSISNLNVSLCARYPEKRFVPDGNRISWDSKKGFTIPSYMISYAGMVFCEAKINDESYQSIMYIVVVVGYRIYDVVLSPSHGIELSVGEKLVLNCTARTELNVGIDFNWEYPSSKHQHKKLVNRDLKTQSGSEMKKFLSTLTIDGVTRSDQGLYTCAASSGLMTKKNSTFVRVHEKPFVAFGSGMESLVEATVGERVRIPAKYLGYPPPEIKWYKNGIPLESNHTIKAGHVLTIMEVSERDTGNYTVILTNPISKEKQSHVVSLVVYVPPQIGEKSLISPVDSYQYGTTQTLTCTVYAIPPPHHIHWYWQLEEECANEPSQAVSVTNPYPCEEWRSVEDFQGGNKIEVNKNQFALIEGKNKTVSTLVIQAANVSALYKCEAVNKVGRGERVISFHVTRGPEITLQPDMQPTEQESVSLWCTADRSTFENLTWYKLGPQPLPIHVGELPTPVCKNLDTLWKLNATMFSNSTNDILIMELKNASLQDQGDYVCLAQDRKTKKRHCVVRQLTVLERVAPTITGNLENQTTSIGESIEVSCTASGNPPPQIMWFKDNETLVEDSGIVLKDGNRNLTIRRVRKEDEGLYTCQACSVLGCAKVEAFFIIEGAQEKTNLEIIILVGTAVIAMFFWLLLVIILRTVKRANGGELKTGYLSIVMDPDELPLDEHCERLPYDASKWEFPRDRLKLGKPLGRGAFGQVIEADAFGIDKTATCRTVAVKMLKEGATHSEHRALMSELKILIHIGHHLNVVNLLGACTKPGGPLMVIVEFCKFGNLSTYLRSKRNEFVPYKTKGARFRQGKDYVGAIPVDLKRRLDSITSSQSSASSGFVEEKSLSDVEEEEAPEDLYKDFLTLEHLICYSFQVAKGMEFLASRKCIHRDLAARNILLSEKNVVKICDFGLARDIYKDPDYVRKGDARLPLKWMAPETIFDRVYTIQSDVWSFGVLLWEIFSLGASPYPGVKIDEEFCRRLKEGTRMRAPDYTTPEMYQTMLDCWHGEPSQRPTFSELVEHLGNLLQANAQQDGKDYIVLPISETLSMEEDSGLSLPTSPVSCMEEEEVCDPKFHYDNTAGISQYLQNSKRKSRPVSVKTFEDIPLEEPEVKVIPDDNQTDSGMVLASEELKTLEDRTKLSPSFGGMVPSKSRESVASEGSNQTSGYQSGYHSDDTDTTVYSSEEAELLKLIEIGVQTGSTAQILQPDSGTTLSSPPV

[8] = AUC (0 to infinity) in ICR mouse at 2 mg/kg, iv administered as single dose by LC-MS/MS analysis; assay type: ADME, organism-based; set-up: dose 2 mg/kg, time infinity, route intravenous; conditions: in vivo
[9] = Dissociation constant, pKa of the compound at pH 3 to 11 by pH metric method; assay type: physicochemical
[10] = Half life in CD-1 mouse brain at 10 mg/kg, po administered as single dose by LC-MS/MS analysis; assay type: ADME, organism-based
[11] = target: Phosphatidylinositol 4,5-bisphosphate 3-kinase catalytic subunit delta isoform (Homo sapiens) (UniProt O00329); assay: Inhibition of PI3K delta (unknown origin) at 1 uM by ADP-Glo assay relative to control
[12] = target: Serine/threonine-protein kinase PAK 4 (Homo sapiens) (UniProt O96013); assay: Inhibition of recombinant human GST-tagged PAK4 expressed in baculovirus expression system at 1 uM by Z'-Lyte assay relative to control
[13] = Cmax in CD-1 mouse brain at 10 mg/kg, po administered as single dose by LC-MS/MS analysis; assay type: ADME, organism-based; set-up: dose 10 mg/kg, route oral
[14] = target: Tyrosine-protein kinase receptor UFO (Homo sapiens) (UniProt P30530); assay: Inhibition of recombinant human N-terminal GST tagged AXL (473-end residues) expressed in baculovirus infected Sf9 cells at 1 uM by Z'-Lyte assay relative to control
[15] = target: Leucine-rich repeat serine/threonine-protein kinase 2 (Homo sapiens) (UniProt Q5S007); assay: Inhibition of recombinant human GST-tagged LRRK2 (970 to 2527 residues) expressed in baculovirus expression system at 0.1 uM by TR-FRET assay relative to control
[16] = target: Tyrosine-protein kinase Lck (Homo sapiens) (UniProt P06239); assay: Inhibition of recombinant human full length His-tagged LCK expressed in baculovirus expression system at 0.1 uM by Z'-Lyte assay relative to control
Tyrosine-protein kinase Lck (Homo sapiens), sequence (P06239 2-509 limits assumed): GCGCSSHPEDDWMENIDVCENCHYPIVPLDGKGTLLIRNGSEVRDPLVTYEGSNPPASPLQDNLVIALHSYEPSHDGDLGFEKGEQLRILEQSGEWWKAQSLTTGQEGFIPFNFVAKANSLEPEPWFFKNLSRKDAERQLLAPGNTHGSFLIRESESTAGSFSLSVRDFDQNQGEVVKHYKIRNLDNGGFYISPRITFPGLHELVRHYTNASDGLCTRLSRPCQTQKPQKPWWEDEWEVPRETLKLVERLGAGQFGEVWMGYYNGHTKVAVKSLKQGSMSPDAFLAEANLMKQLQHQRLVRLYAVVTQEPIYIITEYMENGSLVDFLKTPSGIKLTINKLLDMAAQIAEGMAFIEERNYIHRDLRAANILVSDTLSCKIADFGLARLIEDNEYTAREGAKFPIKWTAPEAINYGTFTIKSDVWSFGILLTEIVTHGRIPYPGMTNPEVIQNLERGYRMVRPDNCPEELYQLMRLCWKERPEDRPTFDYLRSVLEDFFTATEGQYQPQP

[17] = target: Phosphatidylinositol 4,5-bisphosphate 3-kinase catalytic subunit gamma isoform (Homo sapiens) (UniProt P48736); assay: Inhibition of PI3K gamma (unknown origin) at 0.1 uM by ADP-Glo assay relative to control
Phosphatidylinositol 4,5-bisphosphate 3-kinase catalytic subunit gamma isoform (Homo sapiens), sequence (P48736 whole entry, looked up, canonical isoform): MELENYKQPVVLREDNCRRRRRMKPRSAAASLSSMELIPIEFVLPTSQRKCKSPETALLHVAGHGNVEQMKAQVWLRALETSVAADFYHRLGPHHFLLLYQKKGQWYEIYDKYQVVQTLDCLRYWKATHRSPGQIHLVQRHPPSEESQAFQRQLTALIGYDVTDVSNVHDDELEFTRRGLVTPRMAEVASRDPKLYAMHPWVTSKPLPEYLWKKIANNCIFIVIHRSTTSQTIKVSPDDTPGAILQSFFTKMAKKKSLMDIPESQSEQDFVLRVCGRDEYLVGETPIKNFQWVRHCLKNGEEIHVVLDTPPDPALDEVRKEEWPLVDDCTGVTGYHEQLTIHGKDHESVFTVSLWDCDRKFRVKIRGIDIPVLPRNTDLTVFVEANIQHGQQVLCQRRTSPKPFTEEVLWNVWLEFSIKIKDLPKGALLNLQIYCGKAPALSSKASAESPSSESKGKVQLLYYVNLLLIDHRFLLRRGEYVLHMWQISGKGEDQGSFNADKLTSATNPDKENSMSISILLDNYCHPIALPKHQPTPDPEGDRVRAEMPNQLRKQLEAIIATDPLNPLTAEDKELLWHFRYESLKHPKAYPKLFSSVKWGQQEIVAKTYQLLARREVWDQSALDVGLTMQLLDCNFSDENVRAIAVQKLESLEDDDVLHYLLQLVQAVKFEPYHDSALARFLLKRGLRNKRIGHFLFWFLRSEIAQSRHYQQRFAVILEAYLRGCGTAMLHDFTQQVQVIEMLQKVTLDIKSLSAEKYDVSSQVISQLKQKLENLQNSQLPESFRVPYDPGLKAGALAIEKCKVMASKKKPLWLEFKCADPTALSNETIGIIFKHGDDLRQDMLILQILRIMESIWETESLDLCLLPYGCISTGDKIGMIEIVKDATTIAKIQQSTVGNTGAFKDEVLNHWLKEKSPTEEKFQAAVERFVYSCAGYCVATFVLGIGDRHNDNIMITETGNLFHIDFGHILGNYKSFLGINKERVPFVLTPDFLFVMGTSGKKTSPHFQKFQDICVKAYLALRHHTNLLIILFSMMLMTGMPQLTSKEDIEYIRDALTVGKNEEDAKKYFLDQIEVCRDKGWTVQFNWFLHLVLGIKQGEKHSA

[18] = target: Dual specificity tyrosine-phosphorylation-regulated kinase 3 (Homo sapiens) (UniProt O43781); assay: Inhibition of recombinant full length human GST-tagged DYRK3 expressed in baculovirus expression system at 1 uM by Z'-Lyte assay relative to control
Dual specificity tyrosine-phosphorylation-regulated kinase 3 (Homo sapiens), sequence (O43781 whole entry): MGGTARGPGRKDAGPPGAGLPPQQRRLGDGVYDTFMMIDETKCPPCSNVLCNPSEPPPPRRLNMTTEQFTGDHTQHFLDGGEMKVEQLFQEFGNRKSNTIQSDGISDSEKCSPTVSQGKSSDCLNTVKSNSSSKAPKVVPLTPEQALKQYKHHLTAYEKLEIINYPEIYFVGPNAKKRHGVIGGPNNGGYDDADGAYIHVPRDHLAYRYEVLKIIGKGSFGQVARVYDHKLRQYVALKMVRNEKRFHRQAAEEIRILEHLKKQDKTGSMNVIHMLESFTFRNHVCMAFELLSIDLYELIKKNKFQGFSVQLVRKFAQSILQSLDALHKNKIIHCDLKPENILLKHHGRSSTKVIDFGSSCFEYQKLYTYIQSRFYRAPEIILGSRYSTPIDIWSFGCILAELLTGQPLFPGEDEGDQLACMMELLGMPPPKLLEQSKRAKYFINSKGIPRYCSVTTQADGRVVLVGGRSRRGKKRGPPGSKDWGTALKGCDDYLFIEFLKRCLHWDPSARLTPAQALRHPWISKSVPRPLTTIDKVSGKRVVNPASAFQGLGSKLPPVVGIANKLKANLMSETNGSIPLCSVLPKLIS

[19] = Fraction unbound in CD-1 mouse plasma at 2 uM incubated for 4 hrs by LC/MS/MS analysis based equillibriun dialysis method; assay type: ADME, cell-free
[20] = target: Aurora kinase B (Homo sapiens) (UniProt Q96GD4); assay: Inhibition of recombinant full length human His-tagged AURKB expressed in baculovirus expression system at 1 uM by Z'-Lyte assay relative to control
[21] = target: CDK6/cyclin D3 (Homo sapiens) (UniProt P30281+Q00534); assay: Inhibition of recombinant full length human GST-tagged CDK6/Cyclin-D3 expressed in baculovirus expression system at 1 uM by TR-FRET assay relative to control
U-87 MG [22] = assay: Antiproliferative activity against human U87MG cells after 72 hrs by DAPI staining based assay; assay type: functional, cell-based, U-87MG ATCC
[23] = target: Serine/threonine-protein kinase MRCK beta (Homo sapiens) (UniProt Q9Y5S2); assay: Inhibition of recombinant human His-tagged CDC42 BPB expressed in baculovirus expression system at 0.1 uM by Z'-Lyte assay relative to control
[24] = target: Aurora kinase A (Homo sapiens) (UniProt O14965); assay: Inhibition of recombinant full length human His-tagged AURKA expressed in baculovirus expression system at 0.1 uM by Z'-Lyte assay relative to control
Aurora kinase A (Homo sapiens), sequence (O14965 whole entry, the tested form may be a part): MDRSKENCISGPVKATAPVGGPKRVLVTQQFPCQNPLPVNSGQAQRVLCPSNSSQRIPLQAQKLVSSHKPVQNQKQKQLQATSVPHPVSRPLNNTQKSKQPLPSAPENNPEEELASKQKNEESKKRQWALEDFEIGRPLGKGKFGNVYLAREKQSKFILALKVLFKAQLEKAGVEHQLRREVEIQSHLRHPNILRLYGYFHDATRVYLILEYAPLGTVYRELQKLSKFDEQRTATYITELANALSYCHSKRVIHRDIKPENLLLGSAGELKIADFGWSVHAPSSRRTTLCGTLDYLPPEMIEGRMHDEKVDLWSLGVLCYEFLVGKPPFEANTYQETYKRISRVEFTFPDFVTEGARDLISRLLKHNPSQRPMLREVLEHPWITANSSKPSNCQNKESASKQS

[25] = target: Epidermal growth factor receptor (Homo sapiens) (UniProt P00533); assay: Inhibition of recombinant human GST-tagged EGFR cytoplasmic domain expressed in baculovirus expression system at 0.1 uM by TR-FRET assay relative to control
[26] = target: Misshapen-like kinase 1 (Homo sapiens) (UniProt Q8N4C8); assay: Inhibition of recombinant human GST-tagged MINK (1 to 320 residues) expressed in baculovirus expression system at 1 uM by Z'-Lyte assay relative to control
[27] = target: Dual specificity tyrosine-phosphorylation-regulated kinase 3 (Homo sapiens) (UniProt O43781); assay: Inhibition of recombinant full length human GST-tagged DYRK3 expressed in baculovirus expression system at 0.1 uM by Z'-Lyte assay relative to control
[28] = target: Aurora kinase A (Homo sapiens) (UniProt O14965); assay: Inhibition of recombinant full length human His-tagged AURKA expressed in baculovirus expression system at 1 uM by Z'-Lyte assay relative to control
[29] = target: Tyrosine-protein kinase Mer (Homo sapiens) (UniProt Q12866); assay: Inhibition of recombinant human GST-tagged MERTK (578 to 872 residues) expressed in baculovirus expression system at 1 uM by Z'-Lyte assay relative to control
[30] = target: Serine/threonine-protein kinase MARK1 (Homo sapiens) (UniProt Q9P0L2); assay: Inhibition of recombinant human full length GST-tagged MARK1 expressed in baculovirus expression system at 0.1 uM by Z'-Lyte assay relative to control
[31] = target: Tyrosine-protein kinase Lck (Homo sapiens) (UniProt P06239); assay: Inhibition of recombinant human full length His-tagged LCK expressed in baculovirus expression system at 1 uM by Z'-Lyte assay relative to control
Mus musculus = assay: In vivo inhibition of CDK4/6 in nude mouse xenografted with human COLO205 cells assessed as reduction in Ser-780-phosphorylated Rb level in tumor administered via oral gavage after 24 hrs by Western blot analysis; assay type: functional, organism-based
[32] = target: Protein kinase C beta type (Homo sapiens) (UniProt P05771); assay: Inhibition of PKCbeta2 (unknown origin) at 0.1 uM by Z'-Lyte assay relative to control

Tyrosine-protein kinase receptor UFO (Homo sapiens), sequence (P30530 whole entry, the tested form may be a part): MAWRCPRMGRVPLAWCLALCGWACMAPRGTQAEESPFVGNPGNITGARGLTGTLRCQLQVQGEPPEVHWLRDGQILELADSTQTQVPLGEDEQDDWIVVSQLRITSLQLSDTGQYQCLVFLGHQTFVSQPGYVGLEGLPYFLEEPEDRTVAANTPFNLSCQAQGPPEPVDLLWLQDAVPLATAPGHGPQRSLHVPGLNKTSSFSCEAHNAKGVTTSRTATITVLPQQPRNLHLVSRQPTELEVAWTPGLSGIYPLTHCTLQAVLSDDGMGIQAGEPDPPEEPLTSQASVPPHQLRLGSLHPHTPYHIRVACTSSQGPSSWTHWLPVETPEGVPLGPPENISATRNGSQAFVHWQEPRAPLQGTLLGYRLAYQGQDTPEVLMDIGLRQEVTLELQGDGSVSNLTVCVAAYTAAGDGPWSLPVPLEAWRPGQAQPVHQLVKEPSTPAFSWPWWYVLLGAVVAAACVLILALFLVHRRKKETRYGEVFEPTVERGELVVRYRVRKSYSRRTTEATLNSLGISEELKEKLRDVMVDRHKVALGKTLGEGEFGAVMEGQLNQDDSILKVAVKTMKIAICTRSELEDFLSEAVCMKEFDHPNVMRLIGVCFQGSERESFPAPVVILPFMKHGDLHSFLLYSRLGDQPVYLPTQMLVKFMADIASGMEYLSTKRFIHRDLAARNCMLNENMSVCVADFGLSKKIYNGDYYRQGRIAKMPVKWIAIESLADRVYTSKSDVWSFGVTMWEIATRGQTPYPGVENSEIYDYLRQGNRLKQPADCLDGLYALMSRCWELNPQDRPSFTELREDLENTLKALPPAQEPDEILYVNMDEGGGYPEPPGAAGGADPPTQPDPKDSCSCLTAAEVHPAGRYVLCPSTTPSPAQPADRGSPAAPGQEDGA

Work on `CC1=Nc2c(F)cc(-c3nc(Nc4ccc(C5CCN(C)CC5)cn4)ncc3F)cc2C12CCCC2` [CROZBACICLIB] yielded an inhibition [1] of 5%, an inhibition [2] of -1% and an inhibition [3] of 2%. The inhibition in vivo at 25 mg/kg (U-87 MG [4]) was 96%, the inhibition [5] was 87% and the IC50 [6] was 3 nM. It also gave an inhibition [7] of 2%, an AUC(0-inf) [8] of 1.33 µg·h/mL and a pKa [9] of 8.19. It also gave a half-life [10] of 6.38 h, an inhibition [11] of 14% and an inhibition [12] of 12%. The Cmax [13] was 2580 ng/g, the inhibition [14] was 26% and the inhibition [15] was 12%. It also gave an inhibition [16] of 3%, an inhibition [17] of -5% and an inhibition [18] of 96%. The Fu [19] was 0.7%, the inhibition [20] was 6% and the inhibition [21] was 101%. The IC50 (U-87 MG [22]) was 15.3 nM, the inhibition [23] was 15% and the inhibition [24] was -2%. The inhibition [25] was -5%, the inhibition [26] was 90% and the inhibition [27] was 29%. For the same compound, the inhibition [28] was 6%, the inhibition [29] was 13% and the inhibition [30] was 3%. For the same compound, the inhibition [31] was 13%, the inhibition (Mus musculus) was “Dose-dependent effect” and the inhibition [32] was 3%.

From ChEMBL document CHEMBL4251601 (Eur J Med Chem, 2018)
